Measurements taken from patent publication US20210078958A1, “QUINAZOLINE DERIVATIVE AND USE THEREOF” (MEDSHINE DISCOVERY INC., priority 2017, published 2021).

Tests used:
OE21 cell = assay: inhibitory activity on cell proliferation (Cell-Titer-Glo), OE21; type: cell-based; conditions: Homo sapiens, OE21, 72 h, incubation for 3 days
Description: (§1) Purpose of the assay: to detect the inhibitory activity of the test compounds on cell proliferation.
(§2) Principle of the assay: the luciferase in a Cell-Titer-Glo reagent produces oxidized luciferin with luciferin, oxygen and ATP as reaction substrates, and releases energy in the form of light. Since the luciferase reaction requires ATP, the total amount of light generated by the reaction is proportional to the total amount of ATP that reflects cell viability.
(§3) Cell Titer-Glo cell viability assay kit with luminescence (Promega #G7573)
(§4) According to the schematic diagram of the cell seed plate, cells were seeded in a 384- or 96-well plate at a density of 1000 cells per well and 25 μL per well, and 25 μL of PBS was added to the wells near edge of the place where no cells were seeded.
(§5) (1) The stock solution of the compounds has a concentration of 10 mM, and the compounds were diluted with DMSO to an initial concentration of 4 mM. The compounds were added to the plate with stock solution of compounds, 9 μL per well.
(§6) (2) The compounds were diluted with an ECHO liquid workstation, where 125 nL of compounds were added to each well of the cell plate, 125 nL of DMSO was added to each of the cell well in columns 2 and 23, and 125 nL of DMSO was added to each PBS well in columns 1 and 24.
(§7) 2.3 After addition of the compounds, the cell plate was centrifuged at 1000 rpm for 1 min, and then placed in a 37° C., 5% CO2 incubator for incubation for 3 days.
(§8) The cell plate was taken out from the incubator and equilibrated at room temperature for 30 minutes. 25 μL of Cell-Titer-Glo reagent was added to each well, shaken for one minute to allow well mixed, and centrifuged at 1000 rpm for 1 minute. After 10 minutes, the plate was read on PerkinElmer Envision, and the […] reading time was set to 0.2 second.

HER1 (ErbB1) = HER1 (ErbB1) (Homo sapiens, UniProt P00533); assay: in vitro enzyme activity, HER1 (ErbB1); type: biochemical; conditions: human ErbB1, [γ-33P]ATP, poly(Glu, Tyr) substrate
HER1 (ErbB1), sequence (P00533 25-1210): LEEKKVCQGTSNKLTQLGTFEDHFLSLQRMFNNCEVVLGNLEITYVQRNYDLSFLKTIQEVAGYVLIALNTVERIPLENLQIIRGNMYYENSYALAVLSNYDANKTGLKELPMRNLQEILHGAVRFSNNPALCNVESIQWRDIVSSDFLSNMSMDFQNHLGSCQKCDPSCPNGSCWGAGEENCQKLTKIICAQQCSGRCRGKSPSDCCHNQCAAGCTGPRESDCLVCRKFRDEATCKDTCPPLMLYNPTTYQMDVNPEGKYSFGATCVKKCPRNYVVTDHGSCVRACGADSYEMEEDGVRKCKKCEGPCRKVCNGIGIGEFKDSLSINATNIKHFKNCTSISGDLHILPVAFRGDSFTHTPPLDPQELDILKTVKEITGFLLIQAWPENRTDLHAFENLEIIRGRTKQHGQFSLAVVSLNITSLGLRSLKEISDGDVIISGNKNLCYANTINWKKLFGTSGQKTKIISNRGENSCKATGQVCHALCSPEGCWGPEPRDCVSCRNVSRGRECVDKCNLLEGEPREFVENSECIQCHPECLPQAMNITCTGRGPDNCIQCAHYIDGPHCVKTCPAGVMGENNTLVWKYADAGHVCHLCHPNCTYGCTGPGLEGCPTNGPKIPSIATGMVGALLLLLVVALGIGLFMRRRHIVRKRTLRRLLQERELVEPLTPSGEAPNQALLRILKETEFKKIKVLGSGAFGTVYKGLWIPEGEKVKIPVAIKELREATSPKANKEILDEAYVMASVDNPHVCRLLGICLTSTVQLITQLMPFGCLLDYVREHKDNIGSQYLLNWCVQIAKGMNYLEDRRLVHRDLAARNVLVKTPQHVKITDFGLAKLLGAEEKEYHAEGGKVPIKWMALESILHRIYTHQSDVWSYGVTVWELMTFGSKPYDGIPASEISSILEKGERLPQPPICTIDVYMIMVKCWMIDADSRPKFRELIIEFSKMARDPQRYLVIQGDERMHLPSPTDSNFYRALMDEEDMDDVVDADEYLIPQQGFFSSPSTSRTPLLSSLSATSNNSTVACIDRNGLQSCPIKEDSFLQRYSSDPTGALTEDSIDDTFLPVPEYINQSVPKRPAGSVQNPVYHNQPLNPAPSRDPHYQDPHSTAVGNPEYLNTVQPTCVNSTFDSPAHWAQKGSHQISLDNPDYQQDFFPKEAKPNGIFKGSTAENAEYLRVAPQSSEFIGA
Description: (§9) The purpose of this assay is to detect the in vitro inhibitory activity of compounds on HER1 (ErbB1), HER2 (ErbB2), and HER4 (ErbB4). The enzymes used in this assay are human ErbB1, ErbB2 and ErbB4. Eurofins Pharma Discovery Service provided the method for activity detection.
(§10) Steps and Method of the Assay (96-Well Plate):
(§11) A buffer solution of the test compounds in a dilution of 5-fold (5 μL), polypeptide substrate poly(Glu, Tyr) (4:1) (2.5 μL), ErbB (4-20 ng, 2.5 μL), MnCl2 (50 mM, 1.25 μL), dH2O (3.75 μL), and [γ-^33P]ATP (10 μL) were added, and incubated at 30° C. for 10 minutes. The reaction was terminated by adding 3% phosphoric acid. 10 μL of the sample was taken and transferred to Filtermate A. The filter disc was washed 3 times with 75 mM phosphoric acid and once with methanol. The filter disc was transferred to a sealed plastic bag and the scintillation mixture (4 mL) was added. The intensity of the emitted photon was detected by a scintillation luminescence counter. The CPM (times/min) of the enzyme sample was compared with the CPM of the internal control sample. The level of photon intensity reflected the degree of the tyrosine kinase activity.

HER4 (ErbB4) = HER4 (ErbB4) (Homo sapiens, UniProt Q15303); assay: in vitro enzyme activity, HER4 (ErbB4); type: biochemical; conditions: human ErbB4, [γ-33P]ATP, poly(Glu, Tyr) substrate
HER4 (ErbB4), sequence (Q15303 26-1308): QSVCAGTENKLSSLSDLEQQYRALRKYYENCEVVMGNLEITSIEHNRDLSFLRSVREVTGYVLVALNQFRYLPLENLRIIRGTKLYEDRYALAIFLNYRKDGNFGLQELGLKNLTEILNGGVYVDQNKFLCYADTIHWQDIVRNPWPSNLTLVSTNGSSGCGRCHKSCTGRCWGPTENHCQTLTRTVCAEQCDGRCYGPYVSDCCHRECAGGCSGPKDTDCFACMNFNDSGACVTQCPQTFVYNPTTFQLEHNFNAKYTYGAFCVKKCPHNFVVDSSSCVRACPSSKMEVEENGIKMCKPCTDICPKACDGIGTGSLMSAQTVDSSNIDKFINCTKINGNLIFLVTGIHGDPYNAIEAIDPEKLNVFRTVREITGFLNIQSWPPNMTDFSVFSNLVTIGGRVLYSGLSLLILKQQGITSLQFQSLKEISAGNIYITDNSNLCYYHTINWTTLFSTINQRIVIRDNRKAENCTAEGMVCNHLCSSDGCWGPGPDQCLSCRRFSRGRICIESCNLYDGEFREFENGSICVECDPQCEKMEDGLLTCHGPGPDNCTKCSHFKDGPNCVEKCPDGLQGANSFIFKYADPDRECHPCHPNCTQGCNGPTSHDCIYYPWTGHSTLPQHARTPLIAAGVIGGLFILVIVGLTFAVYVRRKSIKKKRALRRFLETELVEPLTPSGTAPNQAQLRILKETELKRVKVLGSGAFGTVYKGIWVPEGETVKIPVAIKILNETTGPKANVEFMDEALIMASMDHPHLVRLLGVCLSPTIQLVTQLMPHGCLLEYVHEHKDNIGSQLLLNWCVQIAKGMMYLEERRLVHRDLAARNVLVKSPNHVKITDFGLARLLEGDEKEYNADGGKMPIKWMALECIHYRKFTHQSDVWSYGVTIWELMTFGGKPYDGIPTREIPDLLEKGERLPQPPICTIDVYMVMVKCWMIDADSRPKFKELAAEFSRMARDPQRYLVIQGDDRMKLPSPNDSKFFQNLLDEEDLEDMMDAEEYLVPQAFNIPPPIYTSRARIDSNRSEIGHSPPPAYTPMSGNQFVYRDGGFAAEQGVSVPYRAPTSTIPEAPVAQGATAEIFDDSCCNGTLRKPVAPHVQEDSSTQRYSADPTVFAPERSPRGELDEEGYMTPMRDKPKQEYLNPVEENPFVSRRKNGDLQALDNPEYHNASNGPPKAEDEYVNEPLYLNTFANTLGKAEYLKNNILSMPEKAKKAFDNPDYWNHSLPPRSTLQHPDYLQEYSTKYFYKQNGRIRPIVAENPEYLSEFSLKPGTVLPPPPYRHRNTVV
Description: as §9, §10, §11

OE19 cells = assay: CTG assay of OE19 cells; type: cell-based; conditions: Homo sapiens, 72 hours of cell culture, Cell Titer Glo
Description: OE19 cells with saturation of 80%-90% were digested with trypsin, centrifuged, resuspended and counted. The concentration of cells was adjusted to […]. OE19 cells were added to a 96-well cell culture plate to 8000 OE19 cells per well. The cells were cultured in a cell incubator containing 5% CO2 at 37° C. overnight.
The stock solution of the test compounds was serially 3-fold diluted with DMSO to a total of 10 concentrations. Before the start of the assay, the serially diluted test compounds were further diluted to 10× compound solutions (the compound with a highest concentration contains 1% DMSO) with cell culture medium under sterile conditions. The prepared 10× compound solutions were added to the cell culture plate, and the 10 μL compound solution was added to each well. In this way, the final concentrations of staurosporine as the standard control and all the test compounds were obtained starting from […] as the initial concentration in a 3-fold serial dilution to get 10 test concentrations.
After 72 hours of cell culture, the 96-well cell culture plate was taken out. Cell Titer Glo reagent was added at […], mixed, centrifuged, and incubated at room temperature in the dark for 10 minutes. The cell plate was placed in Envision for reading.
The inhibition rate was calculated according to original data as follows:
Inhibition %=(ZPE−sample detection value)/(ZPE−HPE)×100%
The well containing 10 mM staurosporine on DAY3 (the first day of the assay is the day when compounds were added, and DAY3 is the day when reading is perfomed) was used as the HPE (100% inhibition control) well, and the well containing 0.1% DMSO on DAY3 was used as the ZPE (0% inhibition control) well. Each concentration of test compounds was tested in duplicate.
Non-linear regression analysis was performed using the processed data and GraphPad Prism 6 analysis software to obtain a dose-response curve, and the half-inhibitory concentration (IC50) of the test compounds on OE19 cells was calculated.

HER2 (ErbB2) = HER2 (ErbB2) (Homo sapiens, UniProt P04626); assay: in vitro enzyme activity, HER2 (ErbB2); type: biochemical; conditions: human ErbB2, [γ-33P]ATP, poly(Glu, Tyr) substrate
HER2 (ErbB2), sequence (P04626 23-1255): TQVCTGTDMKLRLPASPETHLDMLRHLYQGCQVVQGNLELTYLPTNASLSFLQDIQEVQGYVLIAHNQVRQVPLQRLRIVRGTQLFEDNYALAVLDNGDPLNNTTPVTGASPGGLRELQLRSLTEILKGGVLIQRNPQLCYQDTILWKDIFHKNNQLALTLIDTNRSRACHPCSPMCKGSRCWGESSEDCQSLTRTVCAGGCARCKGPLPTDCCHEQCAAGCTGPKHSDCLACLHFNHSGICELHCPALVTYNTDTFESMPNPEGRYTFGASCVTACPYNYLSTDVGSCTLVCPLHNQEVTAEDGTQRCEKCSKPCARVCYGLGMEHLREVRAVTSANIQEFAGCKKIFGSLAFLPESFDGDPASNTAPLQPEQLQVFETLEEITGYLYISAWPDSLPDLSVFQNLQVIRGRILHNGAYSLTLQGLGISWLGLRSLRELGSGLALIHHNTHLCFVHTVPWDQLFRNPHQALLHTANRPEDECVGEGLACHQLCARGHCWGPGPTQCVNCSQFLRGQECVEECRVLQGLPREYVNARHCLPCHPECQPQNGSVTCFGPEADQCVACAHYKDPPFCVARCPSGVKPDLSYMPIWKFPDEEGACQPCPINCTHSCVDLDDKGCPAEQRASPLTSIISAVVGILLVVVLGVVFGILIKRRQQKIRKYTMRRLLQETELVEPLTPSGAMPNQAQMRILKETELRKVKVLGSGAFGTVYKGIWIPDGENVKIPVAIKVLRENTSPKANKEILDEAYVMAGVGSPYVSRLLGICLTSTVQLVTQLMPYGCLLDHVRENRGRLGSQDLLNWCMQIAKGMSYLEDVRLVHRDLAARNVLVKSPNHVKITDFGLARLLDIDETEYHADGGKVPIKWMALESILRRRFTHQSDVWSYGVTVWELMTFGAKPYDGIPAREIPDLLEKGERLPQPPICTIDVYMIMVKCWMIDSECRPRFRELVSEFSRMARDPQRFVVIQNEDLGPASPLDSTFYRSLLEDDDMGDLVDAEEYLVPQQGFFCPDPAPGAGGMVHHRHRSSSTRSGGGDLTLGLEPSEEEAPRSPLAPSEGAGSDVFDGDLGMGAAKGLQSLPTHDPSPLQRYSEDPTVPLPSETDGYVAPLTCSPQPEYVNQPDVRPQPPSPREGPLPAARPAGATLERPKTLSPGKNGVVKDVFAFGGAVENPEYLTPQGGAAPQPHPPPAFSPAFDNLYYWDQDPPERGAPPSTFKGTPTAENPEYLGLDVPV
Description: as §9, §10, §11

NCI-N87 cell = assay: inhibitory activity on cell proliferation (Cell-Titer-Glo), NCI-N87; type: cell-based; conditions: Homo sapiens
Description: as §1, §2, §3, §4, §5, §6, §7, §8

BT-474 cell = assay: inhibitory activity on cell proliferation (Cell-Titer-Glo), BT-474; type: cell-based; conditions: Homo sapiens
Description: as §1, §2, §3, §4, §5, §6, §7, §8

[1] = tested on: subcutaneous xenograft tumor of human gastric cancer NCI-N87 cells; assay: Assay Example 5: in vivo pharmacodynamics, NCI-N87 xenograft; design: species or system BALB/c nude mouse; conditions: 0.5 mg/kg
Description: Purpose of the assay: to evaluate the in vivo efficacy of test compounds disclosed herein on subcutaneous xenograft tumor of human gastric cancer NCI-N87 cells in a BALB/c nude mouse model.
Animals of the assay: female BALB/c nude mice, 6-8 weeks old, weighing 18-22 grams; supplier: shanghai sippr bk laboratory animals Ltd.
Human gastric cancer NCI-N87 cells were cultured in monolayer in vitro. The culture conditions were RPMI-1640 medium plus 10% fetal bovine serum, 100 U/mL penicillin, 100 μg/mL streptomycin, 37° C., 5% CO2. The passaging was performed by conventional digestion with trypsin-EDTA twice a week. When the cell saturation was 80%-90%, the cells were collected, counted and inoculated.
0.2 mL (10×10^6) of NCI-N87 cells (PBS+Matrigel, 1:1) were inoculated subcutaneously on the right back of each mouse. When the average tumor volume reached 156 mm^3, administration to each group was started.
The test compounds were formulated into a 0.05 mg/mL clear solution in the solvents of 10% NMP (N-methylpyrrolidone)+10% ethylene glycol stearate+80% water.
The assay index is to investigate whether tumor growth is inhibited, delayed or cured. Tumor diameter was measured twice a week with a vernier caliper. The calculation formula of tumor volume is: V=0.5a×b^2, wherein a and b represent the long and short diameters of tumor, respectively.
The antitumor efficacy of the compounds were evaluated by TGI (%) or tumor proliferation rate T/C (%). TGI (%) reflects the tumor growth inhibition rate. TGI (%) is calculated as follows: TGI (%)=[1−(average tumor volume at the end of administration for a certain treatment group−average tumor volume at the beginning of administration for this treatment group)/(average tumor volume at the end of treatment for a solvent control group−average tumor volume at the beginning of administration for this solvent control group)]×100%.
Tumor proliferation rate T/C (%): the calculation formula is as follows: T/C (%)=average tumor volume at the end of administration for a certain treatment group/average tumor volume at the end of treatment for the solvent control group×100%.
Statistical analysis included the mean and standard error (SEM) of tumor volume at each time point in each group (See Table 5-1 for specific data). […] The comparison between two groups was analyzed by T-test, and the comparison among three or more groups was analyzed by one-way ANOVA. […] All data analysis was carried out with SPSS 17.0. p<0.05 was considered a significant difference.

[2] = Assay Example 7: pharmacokinetics in mice; type: in vivo; conditions: mouse, female BALB/c mice, plasma, dose not given
Description: Purpose of the assay: this assay aims to investigate in vivo plasma pharmacokinetics of the example compounds disclosed herein and the reference compound in female BALB/c mice after the single intravenous injection and intragastric administration thereof.
Animals of the assay: female BALB/c nude mice, 7-9 weeks old, weighted 17-23 grams; supplier: shanghai sippr bk laboratory animals Ltd.
Sample collection: at each time point, a 0.03 mL blood sample was collected from the saphenous vein of the test animal by puncture, and the actual blood collection time was recorded. All blood samples were added into commercial EDTA-K2 anticoagulation tubes with a specification of 1.5 mL (the supplier was Jiangsu KANGJIAN Medical Apparatus Co., Ltd.). Within half an hour after the blood sample was collected, the blood sample was centrifuged at 3000 g at 4° C. for 10 minutes, and the supernatant plasma was drawn, quickly placed in dry ice, and stored in a refrigerator at −80° C. for LC-MS/MS analysis.
Data analysis: Plasma concentrations were processed using a non-compartmental model of WinNonlin™ Version6.3 (Pharsight, MountainView, Calif.) pharmacokinetic software, and pharmacokinetic parameters Cmax, Tmax, T1/2, and AUC0-last were calculated using a linear log trapezoid method.

[3] = NCI-N87, footnote d: initial dilution concentration of compounds is 10 μM
[4] = BT-474, footnote d: initial dilution concentration of compounds is 10 μM
[5] = NCI-N87, 72 h, incubation for 3 days, Cell-Titer-Glo

Row | Structure (SMILES) | IC50 (HER1 (ErbB1)) | IC50 (HER4 (ErbB4)) | IC50 (HER2 (ErbB2)) | IC50 (NCI-N87 cell; [3]) | IC50 (BT-474 cell; [4]) | also measured
1 | C=CC(=O)N1[C@@H]2CC[C@H]1C[C@H](Nc1cc3c(Nc4ccc(F)c(Cl)c4F)ncnc3cc1OC)C2 [Example 48] | 9 nM | 4 nM | 11 nM | – | – | IC50 (OE21 cell): 0.17 nM; IC50 (OE19 cells): 0.24 nM
2 | C=CC(=O)N1C[C@H]2C[C@@H](C1)[C@H]2Oc1cc2c(Nc3ccc(Cl)c(Cl)c3F)ncnc2cc1OCCCN1CCOCC1 [Example 18] | 9 nM | 5 nM | 12 nM | 1.3 nM | 2.4 nM | –
3 | C=CC(=O)N1C[C@H]2C[C@@H](C1)[C@H]2Nc1cc2c(Nc3ccc(Cl)c(Cl)c3F)ncnc2cc1OC [Example 9] | 9 nM | 8 nM | 13 nM | 0.9 nM | 2.1 nM | –
4 | C=CC(=O)N1C[C@H]2C[C@@H](C1)[C@H]2Oc1cc2c(Nc3ccc(Cl)c(Cl)c3F)ncnc2cc1OCCO [Example 13] | 5 nM | 7 nM | 8 nM | 1.6 nM | 2 nM | –
5 | C=CC(=O)N1[C@@H]2CC[C@H]1C[C@H](Oc1cc3c(Nc4ccc(Cl)c(Cl)c4F)ncnc3cc1OCC)C2 [Example 21] | 12 nM | 3 nM | 5 nM | – | – | IC50 (NCI-N87 cell; [5]): 0.35 nM; IC50 (BT-474 cell; BT-474, 72 h, incubation for 3 days, Cell-Titer-Glo): 0.46 nM
6 | C=CC(=O)N1[C@@H]2CC[C@H]1C[C@H](Oc1cc3c(Nc4ccc(F)c(Cl)c4F)ncnc3cc1OC)C2 [Example 34] | 5 nM | 2 nM | 4 nM | – | – | IC50 (OE21 cell): 0.27 nM; IC50 (NCI-N87 cell; [5]): 0.42 nM; IC50 (OE19 cells): 0.001 nM
7 | C=CC(=O)N1CCC(Nc2cc3c(Nc4ccc(F)c(Cl)c4)ncnc3cc2OC)CC1 [Control compound 2] | – | – | – | – | – | Tumor volume (mm^3) (Day 21) ([1]; NCI-N87 xenograft, Mean + SEM): 541 ± 88 mm^3; T/C (%) ([1]; day 21): 89.35%; TGI (%) ([1]; day 21): 18.83%; Tmax ([2]; oral): 2 h; half-life ([2]; oral): 1.5 h; AUC(0-t) ([2]; oral plasma exposure): 82 µM·h; Cmax ([2]; oral plasma exposure): 15.3 µM
